Measured values reported in PubChem BioAssay (NCI).
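Assay format: 96-well plates, 48-hour exposure. At the TGI there is no net growth.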

Experiments:
Test in all cases: growth of human tumour cells (NCI), 48 h
786-0 renal = tested on: 786-0 renal
A498 renal = tested on: A498 renal
A549 NSCLC = tested on: A549 NSCLC
ACHN renal = tested on: ACHN renal
CCRF-CEM leukemia = tested on: CCRF-CEM leukemia
COLO 205 colon = tested on: COLO 205 colon
DLD-1 colon = tested on: DLD-1 colon
DMS 114 small cell lung = tested on: DMS 114 small cell lung
DMS 273 small cell lung = tested on: DMS 273 small cell lung
EKVX NSCLC = tested on: EKVX NSCLC
HCC-2998 colon = tested on: HCC-2998 colon
HCT-116 colon = tested on: HCT-116 colon
HCT-15 colon = tested on: HCT-15 colon
HL-60(TB) leukemia = tested on: HL-60(TB) leukemia
HOP-62 NSCLC = tested on: HOP-62 NSCLC
HT29 colon = tested on: HT29 colon
IGROV1 ovarian = tested on: IGROV1 ovarian
K-562 leukemia = tested on: K-562 leukemia
KM20L2 colon = tested on: KM20L2 colon
LOX IMVI melanoma = tested on: LOX IMVI melanoma
LXFL 529 NSCLC = tested on: LXFL 529 NSCLC
M14 melanoma = tested on: M14 melanoma
MALME-3M melanoma = tested on: MALME-3M melanoma
MOLT-4 leukemia = tested on: MOLT-4 leukemia
NCI-H226 lung = tested on: NCI-H226 lung
NCI-H23 lung = tested on: NCI-H23 lung
NCI-H460 lung = tested on: NCI-H460 lung
OVCAR-3 ovarian = tested on: OVCAR-3 ovarian
OVCAR-4 ovarian = tested on: OVCAR-4 ovarian
OVCAR-8 ovarian = tested on: OVCAR-8 ovarian
RPMI-8226 leukemia = tested on: RPMI-8226 leukemia
RXF 393 renal = tested on: RXF 393 renal
SF-268 CNS = tested on: SF-268 CNS
SF-295 CNS = tested on: SF-295 CNS
SF-539 CNS = tested on: SF-539 CNS
SK-MEL-2 melanoma = tested on: SK-MEL-2 melanoma
SK-MEL-28 melanoma = tested on: SK-MEL-28 melanoma
SK-MEL-5 melanoma = tested on: SK-MEL-5 melanoma
SN12C renal = tested on: SN12C renal
SNB-19 CNS = tested on: SNB-19 CNS
SNB-75 CNS = tested on: SNB-75 CNS
SR leukemia = tested on: SR leukemia
SW-620 colon = tested on: SW-620 colon
TK-10 renal = tested on: TK-10 renal
U251 CNS = tested on: U251 CNS
UACC-257 melanoma = tested on: UACC-257 melanoma
UACC-62 melanoma = tested on: UACC-62 melanoma
UO-31 renal = tested on: UO-31 renal
XF 498 CNS = tested on: XF 498 CNS
HOP-92 NSCLC = tested on: HOP-92 NSCLC
KM12 colon = tested on: KM12 colon
M19-MEL melanoma = tested on: M19-MEL melanoma
NCI-H522 lung = tested on: NCI-H522 lung
SK-OV-3 ovarian = tested on: SK-OV-3 ovarian
SNB-78 CNS = tested on: SNB-78 CNS
CAKI-1 renal = tested on: CAKI-1 renal
OVCAR-5 ovarian = tested on: OVCAR-5 ovarian

With `CCOC(=O)C(C(CC(=O)OC)NC(=O)OCc1ccccc1)C1(C)OCCO1` (stereo not given) the TGI (786-0 renal) was over 100 µM, the TGI (A498 renal) was over 100 µM and the TGI (A549 NSCLC) was over 100 µM. It also gave a TGI (ACHN renal) of over 100 µM, a TGI (CCRF-CEM leukemia) of over 100 µM and a TGI (COLO 205 colon) of over 100 µM. The TGI (DLD-1 colon) was over 100 µM, the TGI (DMS 114 small cell lung) was over 100 µM and the TGI (DMS 273 small cell lung) was over 100 µM. For the same compound, the TGI (EKVX NSCLC) was over 100 µM, the TGI (HCC-2998 colon) was over 100 µM and the TGI (HCT-116 colon) was over 100 µM. For the same compound, the TGI (HCT-15 colon) was over 100 µM, the TGI (HL-60(TB) leukemia) was over 100 µM and the TGI (HOP-62 NSCLC) was over 100 µM. It also gave a TGI (HT29 colon) of over 100 µM, a TGI (IGROV1 ovarian) of over 100 µM and a TGI (K-562 leukemia) of over 100 µM. It also gave a TGI (KM20L2 colon) of over 100 µM, a TGI (LOX IMVI melanoma) of over 100 µM and a TGI (LXFL 529 NSCLC) of over 100 µM. For the same compound, the TGI (M14 melanoma) was over 100 µM, the TGI (MALME-3M melanoma) was over 100 µM and the TGI (MOLT-4 leukemia) was over 100 µM. The TGI (NCI-H226 lung) was over 100 µM, the TGI (NCI-H23 lung) was over 100 µM and the TGI (NCI-H460 lung) was over 100 µM. For the same compound, the TGI (OVCAR-3 ovarian) was over 100 µM, the TGI (OVCAR-4 ovarian) was over 100 µM and the TGI (OVCAR-8 ovarian) was over 100 µM. For the same compound, the TGI (RPMI-8226 leukemia) was over 100 µM, the TGI (RXF 393 renal) was over 100 µM and the TGI (SF-268 CNS) was over 100 µM. For the same compound, the TGI (SF-295 CNS) was over 100 µM, the TGI (SF-539 CNS) was over 100 µM and the TGI (SK-MEL-2 melanoma) was over 100 µM. For the same compound, the TGI (SK-MEL-28 melanoma) was over 100 µM, the TGI (SK-MEL-5 melanoma) was over 100 µM and the TGI (SN12C renal) was over 100 µM. It also gave a TGI (SNB-19 CNS) of over 100 µM, a TGI (SNB-75 CNS) of over 100 µM and a TGI (SR leukemia) of over 100 µM. For the same compound, the TGI (SW-620 colon) was over 100 µM, the TGI (TK-10 renal) was over 100 µM and the TGI (U251 CNS) was over 100 µM. For the same compound, the TGI (UACC-257 melanoma) was over 100 µM, the TGI (UACC-62 melanoma) was over 100 µM and the TGI (UO-31 renal) was over 100 µM. The TGI (XF 498 CNS) was over 100 µM.
`Cc1nc2c(n1CC(C)C)C(=O)c1ccccc1C2=O` showed a TGI (786-0 renal) of over 100 µM, a TGI (A549 NSCLC) of 97.7 µM and a TGI (ACHN renal) of over 100 µM. For the same compound, the TGI (CCRF-CEM leukemia) was over 100 µM, the TGI (COLO 205 colon) was over 100 µM and the TGI (DLD-1 colon) was over 100 µM. The TGI (DMS 273 small cell lung) was over 100 µM, the TGI (EKVX NSCLC) was over 100 µM and the TGI (HCC-2998 colon) was over 100 µM. The TGI (HCT-116 colon) was 67.4 µM, the TGI (HCT-15 colon) was over 100 µM and the TGI (HL-60(TB) leukemia) was over 100 µM. For the same compound, the TGI (HOP-62 NSCLC) was over 100 µM, the TGI (HOP-92 NSCLC) was 65.7 µM and the TGI (HT29 colon) was over 100 µM. For the same compound, the TGI (IGROV1 ovarian) was over 100 µM, the TGI (K-562 leukemia) was over 100 µM and the TGI (KM12 colon) was over 100 µM. The TGI (KM20L2 colon) was over 100 µM, the TGI (LOX IMVI melanoma) was over 100 µM and the TGI (LXFL 529 NSCLC) was over 100 µM. For the same compound, the TGI (M14 melanoma) was over 100 µM, the TGI (M19-MEL melanoma) was 29.6 µM and the TGI (MALME-3M melanoma) was 40.6 µM. It also gave a TGI (MOLT-4 leukemia) of over 100 µM, a TGI (NCI-H226 lung) of over 100 µM and a TGI (NCI-H23 lung) of 49.2 µM. The TGI (NCI-H460 lung) was 54.2 µM, the TGI (NCI-H522 lung) was 76.5 µM and the TGI (OVCAR-3 ovarian) was 82.1 µM. The TGI (OVCAR-4 ovarian) was over 100 µM, the TGI (OVCAR-8 ovarian) was over 100 µM and the TGI (RXF 393 renal) was over 100 µM. The TGI (SF-268 CNS) was over 100 µM, the TGI (SF-295 CNS) was over 100 µM and the TGI (SF-539 CNS) was 87.6 µM. It also gave a TGI (SK-MEL-2 melanoma) of 74.7 µM, a TGI (SK-MEL-28 melanoma) of over 100 µM and a TGI (SK-MEL-5 melanoma) of 34.7 µM. For the same compound, the TGI (SK-OV-3 ovarian) was over 100 µM, the TGI (SN12C renal) was over 100 µM and the TGI (SNB-19 CNS) was over 100 µM. It also gave a TGI (SNB-75 CNS) of over 100 µM, a TGI (SNB-78 CNS) of over 100 µM and a TGI (SR leukemia) of over 100 µM. It also gave a TGI (SW-620 colon) of over 100 µM, a TGI (TK-10 renal) of over 100 µM and a TGI (U251 CNS) of over 100 µM. For the same compound, the TGI (UACC-257 melanoma) was 45.4 µM, the TGI (UACC-62 melanoma) was 50.5 µM and the TGI (UO-31 renal) was over 100 µM. It also gave a TGI (XF 498 CNS) of 95.9 µM.
In the case of `C=CCc1cc(OC)c2c(c1)C(OC(C)=O)CC(c1ccc(OC)c(OC)c1)O2` (stereo not given), the TGI (A549 NSCLC) is reported as over 100 µM, the TGI (ACHN renal) is reported as over 100 µM and the TGI (CAKI-1 renal) is reported as over 100 µM. It also gave a TGI (CCRF-CEM leukemia) of over 100 µM, a TGI (COLO 205 colon) of over 100 µM and a TGI (DLD-1 colon) of over 100 µM. The TGI (DMS 114 small cell lung) was over 100 µM, the TGI (DMS 273 small cell lung) was over 100 µM and the TGI (EKVX NSCLC) was over 100 µM. The TGI (HCC-2998 colon) was over 100 µM, the TGI (HCT-116 colon) was over 100 µM and the TGI (HCT-15 colon) was over 100 µM. It also gave a TGI (HL-60(TB) leukemia) of over 100 µM, a TGI (HOP-62 NSCLC) of over 100 µM and a TGI (HOP-92 NSCLC) of 76.2 µM. For the same compound, the TGI (HT29 colon) was over 100 µM, the TGI (IGROV1 ovarian) was over 100 µM and the TGI (K-562 leukemia) was over 100 µM. It also gave a TGI (KM12 colon) of over 100 µM, a TGI (KM20L2 colon) of over 100 µM and a TGI (LXFL 529 NSCLC) of over 100 µM. It also gave a TGI (M14 melanoma) of over 100 µM, a TGI (M19-MEL melanoma) of over 100 µM and a TGI (MALME-3M melanoma) of over 100 µM. The TGI (MOLT-4 leukemia) was over 100 µM, the TGI (NCI-H226 lung) was over 100 µM and the TGI (NCI-H23 lung) was over 100 µM. The TGI (NCI-H460 lung) was over 100 µM, the TGI (NCI-H522 lung) was over 100 µM and the TGI (OVCAR-3 ovarian) was over 100 µM. The TGI (OVCAR-4 ovarian) was over 100 µM, the TGI (OVCAR-5 ovarian) was over 100 µM and the TGI (SF-268 CNS) was over 100 µM. For the same compound, the TGI (SF-295 CNS) was over 100 µM, the TGI (SF-539 CNS) was over 100 µM and the TGI (SK-MEL-28 melanoma) was over 100 µM. It also gave a TGI (SK-MEL-5 melanoma) of over 100 µM, a TGI (SK-OV-3 ovarian) of over 100 µM and a TGI (SN12C renal) of over 100 µM. The TGI (SNB-19 CNS) was over 100 µM, the TGI (SNB-75 CNS) was 58.6 µM and the TGI (SNB-78 CNS) was over 100 µM. It also gave a TGI (SR leukemia) of over 100 µM, a TGI (SW-620 colon) of over 100 µM and a TGI (TK-10 renal) of over 100 µM. For the same compound, the TGI (U251 CNS) was over 100 µM, the TGI (UACC-257 melanoma) was over 100 µM and the TGI (UACC-62 melanoma) was over 100 µM. The TGI (UO-31 renal) was over 100 µM.
